Counter-ions that a name gives are not always drawn. Like-named read-outs stand apart in the source and are kept apart here.

What all share (format): cell-based
Experiment [1] has as its system Capan-1 pancreatic cancer cells. Description: SRB cell viability assay, Capan-1. Conditions: Homo sapiens, Capan-1, Pancreas. How it is done: (§1) The effect of OSC inhibition was evaluated in additional cancer cell lines as well. Cancer cell lines may be purchased from ATCC (Manassas, Va.). The SRB assay has been employed for determination of the inhibitory effects of RO 48-8071 on growth of different cancer cells. Cells were seeded into 96-well plates and incubated overnight at 37° C. with 5% CO2. The culture medium was removed after 24 hours, and cells were washed with DMEM/F12 medium and then treated with various concentrations of RO 48-8071 in 5% FBS culture medium for 24 and 48 hours. Surviving or adherent cells were fixed in situ by withdrawing the growth medium, adding 100 μl PBS and 100 μl 50% trichloroacetic acid and then incubating at 4° C. for one hour. Cells were washed with ice-cold water, dried at room temperature (RT), and then stained with 50 μl 4% SRB for eight minutes at RT. Unbound dye was removed by washing with cold 1% acetic acid for five times, and plates were dried at RT. Bound stain was solubilized with 150 μl 10 mM Tris buffer and absorbance of samples was read at 520 nm with a SpecTRA MAX 190 microplate reader (Molecular Devices, Sunnyvale, Calif.). Six wells were used for each concentration, and each experiment was performed two to three times.
Effect of RO 48-8071 on pancreatic cancer cell line Capan-1 viability. […] The culture mediums employed 20% FBS IMDM for culture and 10% FBS IMDM for treatment.

In experiment [2] the test system is MDA-231 breast cancer cells. Description: SRB cell viability assay, MDA-231. The conditions noted are these: Homo sapiens, MDA-MB-231, MDA-231, Breast (triple negative). How it is done:
as §1
Effect of RO 48-8071 on estrogen, progesterone, and HER-2/neu receptors negative breast cancer cell line MDA-231 and BT-20 viability. […]

In a further experiment the test system is DLD-1 colon cancer cells. Description: SRB cell viability assay, DLD-1. The conditions noted are these: Homo sapiens. How it is done:
as §1
Effect of RO 48-8071 on colon cancer cell line DLD-1 viability. […] The culture mediums employed 10% FBS RPMI-1640 for culture and 5% FBS RPMI-1640 for treatment.

Where [3] appears, read: 24 hours, read-out: IC50 (μM) (24 hours).
The mark [4] stands for this setting: 48 hours, read-out: IC50 (μM) (48 hours).

By IC50 is commonly meant the concentration that inhibits the measured activity by half. On to `C=CCN(C)CCCCCCOc1ccc(C(=O)c2ccc(Br)cc2)c(F)c1` [Ro 48-8071, 4′-[6-(Allylmethylamino)hexyloxy]-4-bromo-2′-fluorobenzophenone fumarate], for which the half-maximal inhibitory concentration (IC50) in experiment [1] (setting [3]) came to 18.6 ± 1.62 µM; in experiment [1] (setting [4]), 13.7 ± 0.168 µM; in experiment [2] (setting [3]), 15 ± 0.482 µM; in experiment [2] (setting [4]), 10.7 ± 0.276 µM; with DLD-1 colon cancer cells (setting [3]), 11.5 ± 0.243 µM; in the experiment with DLD-1 colon cancer cells (setting [4]) it was 6.92 ± 0.41 µM.

The values are drawn from US10143686B2, “Oxidosqualene cyclase as a protein target for anticancer therapeutics” (The Curators of the University of Missouri, priority 2010, dated 2018).
